By IC50 is commonly meant the concentration that gives 50% inhibition.

This experiment has as its target AT2 Receptor (AT2R) (Homo sapiens (Human), UniProt P50052). The experiment is described as follows: Measurement of inhibitory activity on AT2 receptor (Tag-lite HTRF, Tb-labeled AT2R cells, angiotensin receptor red agonist). Format: binding. Conditions: 1 h room temperature. As for the experimental part: Measurement of Inhibitory Activity on AT1 Receptor ([…])/AT2 Receptor (AT2R)
Through the following steps, the inhibitory activity of the compound on AT1R/AT2R (IC50 value) was determined:
1) An appropriate amount of 1×TLB (Tag-lite Buffer) was prepared and well mixed for use.
2) The compound was diluted by 10 times with ddH2O or DMSO. The compound was then dilute to 4 times of the working concentration with 1×TLB and mixed well for use.
3) 8600 nM Tag-lite angiotensin receptor red agonist was diluted to 12 nM (4×Kd) with 1×TLB.
4) 5 ml 1×TLB was taken into a 15 ml centrifuge tube.
5) After thawing 1 tube of Tb-labeled AT1R/AT2R cells in a 37° C. water bath, the cells were quickly transferred to the 1×TLB in step 4), mixed gently, and centrifuged at 1200 g for 5 minutes at room temperature.
6) The supernatant was aspirated gently, and the cells were resuspended and mixed in 2.7 ml 1×TLB, and then placed at room temperature until use.
7) 10 μl cells were added to all test wells, and 5 μl 4× working solution of the compound from step 2) was added to the corresponding test wells. 5 μl 4× Tag-lite angiotensin receptor red agonist well diluted in step 3) was added to all test wells.
8) After leaving the reaction plate at room temperature for 1 h, data were measured and analyzed using Envision HTRF Reader, and the half inhibitory concentration (IC50) of the compound on AT1R/AT2R was calculated with the GraphPad Prism four-parameter equation.
On the technique in general: TR-FRET usually uses a lanthanide donor and a delayed reading to cut background.

Sequence of AT2 Receptor (AT2R) (P50052 whole entry): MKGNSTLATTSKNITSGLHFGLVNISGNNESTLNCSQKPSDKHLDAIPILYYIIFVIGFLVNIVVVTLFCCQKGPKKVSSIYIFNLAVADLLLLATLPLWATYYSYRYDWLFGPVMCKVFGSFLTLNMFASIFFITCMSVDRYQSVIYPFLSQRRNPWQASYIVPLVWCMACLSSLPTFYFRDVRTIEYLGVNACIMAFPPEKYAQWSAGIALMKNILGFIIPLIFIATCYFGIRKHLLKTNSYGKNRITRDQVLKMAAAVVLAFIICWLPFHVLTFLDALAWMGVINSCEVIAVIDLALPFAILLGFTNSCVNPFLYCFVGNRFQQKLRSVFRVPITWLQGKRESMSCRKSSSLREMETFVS

The molecule `O=C(O)[C@@H]1[C@H]2CC[C@@H](CN1C(=O)N(c1ccccc1)c1ccccc1)N2C(=O)N1CCCC1c1ccccc1` (stereo partly drawn) [Compound C138, (1R,2S,5S)-3-(diphenylcarbamoyl)-8-(2-phenylpyrrolidine-1-carbonyl)-3,8-diazabicyclo[3.2.1] octane-2-carboxylic acid] yielded an IC50 of 11.7 nM.

Take `O=C(O)[C@@H]1[C@H]2CC[C@@H](CN1C(=O)N(c1ccccc1)c1ccccc1)N2C(=O)N(Cc1ccccc1)c1ccccc1` [Compound C134, (1R,2S,5S)-8-(benzyl(phenyl)carbamoyl)-3-(diphenylcarbamoyl)-3,8-diazabicyclo [3.2.1]octane-2-carboxylic acid]: the IC50 is 322 nM.

`O=C(O)[C@@H]1[C@H]2CC[C@@H](CN1C(=O)N(c1ccccc1)c1ccccc1)N2C(=O)Oc1ccccc1` [Compound C115, (1R,2S,5S)-3-(diphenylcarbamoyl)-8-(phenoxycarbonyl)-3,8-diazabicyclo [3.2.1]octane-2-carboxylic acid]: the IC50 amounted to 431 nM. The IC50 values of the last two molecules are within 1.5-fold of each other.

In the case of `C/C(=C\c1ccccc1)C(=O)N1[C@H]2CC[C@@H]1[C@@H](C(=O)O)N(C(=O)C(c1ccccc1)c1ccccc1)C2` [Compound C231, (1R,2S,5S)-3-(2,2-diphenylacetyl)-8-((E)-2-methyl-3-phenylacryloyl)-3,8-diazabicyclo [3.2.1]octane-2-carboxylic acid], the half-maximal inhibitory concentration (IC50) is 103 nM.

`CC(c1ccccc1)N(C)C(=O)N1[C@H]2CC[C@@H]1[C@@H](C(=O)O)N(C(=O)N(c1ccccc1)c1ccccc1)C2` (stereo partly drawn) [Compound C225, (1R,2S,5S)-3-(diphenylcarbamoyl)-8-(methyl (1-phenylethyl)carbamoyl)-3,8-diazabicyclo [3.2.1]octane-2-carboxylic acid]: the IC50 is 11.7 nM.

In turn, `CN(Cc1ccc(F)cc1)C(=O)N1[C@H]2CC[C@@H]1[C@@H](C(=O)O)N(C(=O)N(c1ccccc1)c1ccccc1)C2` [Compound C161, (1R,2S,5S)-3-(diphenylcarbamoyl)-8-((4-fluorobenzyl) (methyl)carbamoyl)-3,8-thazabicyclo [3.2.1]octane-2-carboxylic acid] displayed an IC50 of 30.5 nM.

`CCN(Cc1ccc(C)s1)C(=O)N1[C@H]2CC[C@@H]1[C@@H](C(=O)O)N(C(=O)C(c1ccccc1)c1ccccc1)C2` [Compound C278, (1R,2S,5S)-3-(2,2-diphenylacetyl)-8-(ethyl((5-methylthiophen-2-yl)methyl)carbamoyl)-3,8-diazabicyclo [3.2.1]octane-2-carboxylic acid]: the 50% inhibitory concentration (IC50) turned out to be 10.6 nM.

`CC(NC(=O)N1[C@H]2CC[C@@H]1[C@@H](C(=O)O)N(C(=O)N(c1ccccc1)c1ccccc1)C2)c1ccccc1` (stereo partly drawn) [Compound C117, (1R,2S,5S)-3-(diphenylcarbamoyl)-8-((1-phenylethyl)carbamoyl)-3,8-diazabicyclo [3.2.1]octane-2-carboxylic acid]: the IC50 was determined as 61.3 nM. Compared with the last molecule, the IC50 is about 5.8-fold higher.

In the case of `CCCc1ccc(CN(C)C(=O)N2[C@H]3CC[C@@H]2[C@@H](C(=O)O)N(C(=O)N(c2ccccc2)c2ccccc2)C3)cc1` [Compound C236, (1R,2S,5S)-3-(diphenylcarbamoyl)-8-(methyl(4-propylbenzyl)carbamoyl)-3,8-diazabicyclo[3.2.1]octane-2-carboxylic acid], the IC50 stood at 6.13 nM.

`Cn1cc(-c2ccccc2C(=O)N2[C@H]3CC[C@@H]2[C@@H](C(=O)O)N(C(=O)N(c2ccccc2)c2ccccc2)C3)cn1` [Compound C241, (1R,2S,5S)-3-(diphenylcarbamoyl)-8-(2-(1-methyl-1H-pyrazole-4-yl)benzoyl)-3,8-diazabicyclo [3.2.1]octane-2-carboxylic acid] returned an IC50 of 156 nM.

`CCN(Cc1cc(C)cs1)C(=O)N1[C@H]2CC[C@@H]1[C@@H](C(=O)O)N(C(=O)N(c1ccccc1)c1ccccc1)C2` [Compound C273, (1R,2S,5S)-3-(diphenylcarbamoyl)-8-(ethyl((4-methylthiophen-2-yl)methyl)carbamoyl)-3,8-diazabicyclo [3.2.1]octane-2-carboxylic acid]: the IC50 is 20.9 nM.

`O=C(O)[C@@H]1[C@H]2CC[C@@H](CN1C(=O)N(c1ccccc1)c1ccccc1)N2C(=O)N1CCc2ccccc2C1` [Compound C131, (1R,2S,5S)-3-(diphenylcarbamoyl)-8-(1,2,3,4-tetrahydroisoquinoline-2-carbonyl)-3,8-diazabicyclo [3.2.1]octane-2-carboxylic acid] came in with an IC50 of 495 nM.

On to `O=C(O)[C@@H]1[C@H]2CC[C@@H](CN1C(=O)N(c1ccccc1)c1ccccc1)N2S(=O)(=O)c1ccccc1` [Compound C182, (1R,2S,5S)-3-(diphenylcarbamoyl)-8-(phenylsulfulyl)-3,8-diazabicyclo [3.2.l]octane-2-carboxylic acid], for which the IC50 was 432 nM.

Turning to `O=C(O)[C@@H]1[C@@H]2CC[C@@H](CC2OCc2cccc(Cl)c2)N1C(=O)C(c1ccccc1)c1ccccc1` (stereo partly drawn) [Compound C291, (1S,3S,4S)-5-((3-chloro-benzyl)oxy)-2-(2,2-diphenylacetyl)-2-azabicyclo [2.2.2]octane-3-carboxylic acid], the IC50 stood at 765 nM.

For the molecule `CC(C)c1ccc(CN(C)C(=O)N2[C@H]3CC[C@@H]2[C@@H](C(=O)O)N(C(=O)N(c2ccccc2)c2ccccc2)C3)cc1` [Compound C214, (1R,2S,5S)-3-(diphenylcarbamoyl)-8-((4-isopropylbenzyl) (methyl)carbamoyl)-3,8-diazabicyclo [3.2.1]octane-2-carboxylic acid], the IC50 stood at 11.3 nM.

The molecule `O=C(O)[C@@H]1[C@H]2CC[C@@H](CN1C(=O)N(c1ccccc1)c1ccccc1)N2C(=O)CCc1ccccc1` [Compound C221, (1R,2S,5S)-3-(diphenylcarbamoyl)-8-(3-phenylpropionyl)-3,8-diazabicyclo [3.2.1]octane-2-carboxylic acid] came in with a half-inhibitory concentration (IC50) of 76.7 nM. This IC50 is about 6.8-fold higher than that of the molecule before.

Regarding `C[C@H](c1ccccc1)N(C)C(=O)N1[C@H]2CC[C@@H]1[C@@H](C(=O)O)N(C(=O)N(c1ccccc1)c1ccccc1)C2` [Compound C226, (1R,2S,5S)-3-(diphenylcarbamoyl)-8-(methyl((R)-1-phenylethyl)carbamoyl)-3,8-diazabicyclo [3.2.1]octane-2-carboxylic acid], the IC50 stood at 12.7 nM. This IC50 lies about 6-fold lower than the previous one.

For the molecule `CCN(Cc1ccccc1Cl)C(=O)N1[C@H]2CC[C@@H]1[C@@H](C(=O)O)N(C(=O)N(c1ccccc1)c1ccccc1)C2` [Compound C212, (1R,2S,SS)-8-((2-chlorobenzyl) (ethyl)carbamoyl)-3-(diphenylcarbamoyl)-3,8-diazabicyclo [3.2.1]octane-2-carboxylic acid], the IC50 was determined as 9.04 nM. The IC50 values of the last two molecules are within 1.5-fold of each other.

Consider `CCN(Cc1ccc(Cl)s1)C(=O)N1[C@H]2CC[C@@H]1[C@@H](C(=O)O)N(C(=O)N(c1ccccc1)c1ccccc1)C2` [Compound C281, (1R,2S,5S)-8-(((5-chlorothiophene-2-yl)methyl) (ethyl)carbamoyl)-3-(diphenylcarbamoyl)-3,8-diazabicyclo[3.2.1] octane-2-carboxylic acid], for which the IC50 is 20.3 nM.

`CN(Cc1ccc(Br)cc1)C(=O)N1[C@H]2CC[C@@H]1[C@@H](C(=O)O)N(C(=O)N(c1ccccc1)c1ccccc1)C2` [Compound C165, (1R,2S,5S)-8-((4-bromobenzyl) (methyl)carbamoyl)-3-(diphenylcarbamoyl)-3,8-diazabicyclo [3.2.1]octane-2-carboxylic acid] had an IC50 of 14 nM.

Turning to `O=C(O)[C@@H]1[C@H]2CC[C@@H](CN1C(=O)N(c1ccccc1)c1ccccc1)N2C(=O)C1(c2ccccc2)CCCC1` [Compound C113, (1R,2S,5S)-3-(diphenylcarbamoyl)-8-(1-phenylcyclopentane-1-carbonyl)-3,8-diazabicyclo [3.2.1]octane-2-carboxylic acid], the IC50 is 12.1 nM.

Consider `O=C(O)[C@H]1[C@@H]2CC[C@H](CN1C(=O)N(c1ccccc1)c1ccccc1)N2C(=O)N(c1ccccc1)c1ccccc1` [Compound C13, (1S,2R,5R)-3,8-bis (diphenylcarbamoyl)-3,8-diazabicyclo [3.2.1]octane-2-carboxylic acid], for which the IC50 was found to be 22.2 nM.

Take “(1R,2S,5S)-3- (2,2-diphenylacetyl)- 8-(((2-fluorobenzyl) oxy)carbonyl)- 3,8-diazabicyclo [3.2.1]octane-2- carboxylic acid [Compound C35]”: the IC50 worked out at 36.6 nM.

`CN(Cc1ccsc1)C(=O)N1[C@H]2CC[C@@H]1[C@@H](C(=O)O)N(C(=O)C(c1ccccc1)c1ccccc1)C2` [Compound C187, (1R,2S,5S)-3-(2,2-diphenylacetyl)-8-(methyl(thiophene-3-ylmethyl)carbamoyl)-3,8-diazabicyclo [3.2.1]octane-2-carboxylic acid]: the IC50 worked out at 3.75 nM. This IC50 is about 9.8-fold lower than that of the molecule before.

The molecule `Cc1ccc(CN(C)C(=O)N2[C@H]3CC[C@@H]2[C@@H](C(=O)O)N(C(=O)N(c2ccccc2)c2ccccc2)C3)s1` [Compound C203, (1R,2S,5S)-3-(diphenylcarbamoyl)-8-(methyl ((5-methylthiophen-2-yl)methyl)carbamoyl)-3,8-diazabicyclo [3.2.1]octane-2-carboxylic acid] registered an IC50 of 13.7 nM. This IC50 is about 3.7-fold higher than that of the molecule before.

The molecule `CCc1ccc(CN(C)C(=O)N2[C@H]3CC[C@@H]2[C@@H](C(=O)O)N(C(=O)N(c2ccccc2)c2ccccc2)C3)cc1` [Compound C164, (1R,2S,5S)-3-(diphenylcarbamoyl)-8-((4-ethylbenzyl) (methyl)carbamoyl)-3,8-diazabicyclo[3.2.1] octane-2-carboxylic acid] displayed an IC50 of 4.35 nM.

Source of the values: patent publication US11453690B2, “Receptor inhibitor, pharmaceutical composition comprising same, and use thereof” (BEIJING TIDE PHARMACEUTICAL CO., LTD., priority 2018, dated 2022).
